Results on one compound are retold here after PMC3135366 (The Journal of Experimental Medicine, 2011).

For the test, the target named is T1, E. coli DOXPRI (Escherichia coli, UniProt P45568).
T1 sequence (P45568 1-398): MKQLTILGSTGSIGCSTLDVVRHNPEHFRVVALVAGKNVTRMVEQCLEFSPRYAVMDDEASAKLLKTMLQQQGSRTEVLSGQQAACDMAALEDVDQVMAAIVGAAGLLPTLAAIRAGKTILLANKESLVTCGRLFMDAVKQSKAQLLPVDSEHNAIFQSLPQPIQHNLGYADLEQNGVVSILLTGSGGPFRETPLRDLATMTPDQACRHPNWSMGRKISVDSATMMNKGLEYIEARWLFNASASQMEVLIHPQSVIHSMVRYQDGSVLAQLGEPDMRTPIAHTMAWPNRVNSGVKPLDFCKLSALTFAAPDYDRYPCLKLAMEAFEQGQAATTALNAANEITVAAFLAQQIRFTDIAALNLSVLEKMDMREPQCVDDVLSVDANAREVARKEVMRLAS
Description: NADPH oxidation assay. It counts as biochemical.

In the case of `NC(=O)C1=CN([C@@H]2O[C@H](COP(=O)(O)OP(=O)(O)OC[C@H]3O[C@@H](n4cnc5c(N)ncnc54)[C@H](OP(=O)(O)O)[C@@H]3O)[C@@H](O)[C@H]2O)C=CC1` [NADPH], the NADPH oxidation assay entry was “noted robust activity for the E. coli enzyme expressed in parallel”.
